The record followed here is patent US9187524B2, “Broad spectrum antibiotic arylomycin analogs” (The Scripps Research Institute, priority 2010, dated 2015).

The test system of assay [1] is wild type S. epidermidis RP62A. Description: microbe, parasite or virus in culture. It is filed as cell-based, Staphylococcus epidermidis. To be noted: for MIC: Staphylococcus epidermidis, read-out: MIC, S. epidermidis.
For assay [2], the system named is lepB(P29S) S. aureus 8325. Description: microbe, parasite or virus in culture. Type of assay: cell-based, Staphylococcus aureus. Particulars: for MIC: Staphylococcus aureus, read-out: MIC, S. aureus P29S.
Assay [3] relates to lepB(P84L) E. coli MG1655. Description: microbe, parasite or virus in culture. Type of assay: cell-based, Escherichia coli. To be noted: for MIC: Escherichia coli, MG1655, read-out: MIC, E. coli P84L.
The subject of assay [4] is lepB(P84L) P. aeruginosa PAO1. Description: microbe, parasite or virus in culture. Type of assay: cell-based, Pseudomonas aeruginosa. To be noted: for MIC: Pseudomonas aeruginosa, PAO1, read-out: MIC, P. aeruginosa P84L.
Another assay concerns wild type E. coli MG1655. Description: microbe, parasite or virus in culture. Type of assay: cell-based, Escherichia coli. Particulars: for MIC: Escherichia coli, MG1655, read-out: MIC, E. coli.
Another assay concerns B. brevis. Description: microbe, parasite or virus in culture. Particulars: for MIC: Brevibacillus brevis, Table 4, read-out: MIC, B. brevis. It is filed as cell-based, Brevibacillus brevis.
In another assay the test system is R. equi. Description: microbe, parasite or virus in culture. Type of assay: cell-based. To be noted: Rhodococcus (subgen. Prescottella) equi; Table 4.
The test system of the next assay is R. opacus. Description: microbe, parasite or virus in culture. It is filed as cell-based. To be noted: Rhodococcus opacus; Table 4; read-out: MIC, R. opacus.
For a further assay, the system named is S. agalactiae. Description: microbe, parasite or virus in culture. Type of assay: cell-based, Streptococcus agalactiae.
A further assay relates to S. pyogenes. Description: microbe, parasite or virus in culture. It is filed as cell-based, Streptococcus pyogenes.
Another assay has as its system S. pneumoniae. Description: microbe, parasite or virus in culture. It is filed as cell-based, Streptococcus pneumoniae.
For another assay, the system named is C. efficiens. Description: microbe, parasite or virus in culture. Type of assay: cell-based. Particulars: Corynebacterium efficiens, Table 4; read-out: MIC, C. efficiens.
Another assay relates to C. glutamicum. Description: microbe, parasite or virus in culture. It is filed as cell-based, Corynebacterium glutamicum. To be noted: Corynebacterium glutamicum; Table 4; read-out: MIC, C. glutamicum.
Another assay deals with L. lactis. Description: microbe, parasite or virus in culture. It is filed as cell-based, Lactococcus lactis. Particulars: Lactococcus lactis, Table 4.
In assay [5] the test system is spsB(S29P) S. epidermidis RP62A. Description: microbe, parasite or virus in culture. It is filed as cell-based, Staphylococcus epidermidis.
The next assay has as its system wild type S. aureus 8325. Description: microbe, parasite or virus in culture. It is filed as cell-based, Staphylococcus aureus.
Assay [6] relates to wild type P. aeruginosa PAO1. Description: microbe, parasite or virus in culture. It is filed as cell-based, Pseudomonas aeruginosa.
Assay [7] relates to S. epidermidis ATCC 35984. Description: MIC. Type of assay: cell-based. Particulars: Table 1.

Values after ≈ are worked out from the molar mass of the structure shown. Read-outs that look alike come from different tables or passages of the source.

With `CCCCCCCCCCCCCCCC(=O)N(C)[C@H](CO)C(=O)N[C@H](C)C(=O)NCC(=O)N(C)[C@@H]1C(=O)NC(C)C(=O)N[C@H](C(=O)O)Cc2cc(c(O)c([N+](=O)[O-])c2)-c2cc1ccc2O` (stereo partly shown) [Arylomycin B-C16], the MIC in [1] is 0.13 µg/mL (≈ 0.14 µM); in assay [2] it was 8 µg/mL (≈ 8.64 µM); in [3] it was 2 µg/mL (≈ 2.16 µM); in [4], 4 µg/mL (≈ 4.32 µM); with wild type E. coli MG1655 it was above 64 µg/mL; in the assay on B. brevis, above 64 µg/mL. Besides, the MIC against R. equi came to 32 µg/mL (≈ 34.6 µM); with R. opacus it was 4 µg/mL (≈ 4.32 µM); in the assay with S. agalactiae (Streptococcus agalactiae, Table 4, read-out: MIC, S. agalactiae), 8 µg/mL (≈ 8.64 µM); with S. pyogenes (Streptococcus pyogenes, Table 4, read-out: MIC, S. pyogenes), 4 µg/mL (≈ 4.32 µM); in the assay with S. pneumoniae (Streptococcus pneumoniae, Table 4, read-out: MIC, S. pneumoniae), 16 µg/mL (≈ 17.3 µM); in the assay with C. efficiens it was 16 µg/mL (≈ 17.3 µM). In addition, the results for the MIC with C. glutamicum and in the assay with L. lactis were 2 µg/mL (≈ 2.16 µM) and 32 µg/mL (≈ 34.6 µM), respectively. For the same compound, the “activity against B. brevis” value in the assay on B. brevis (MHBII broth and nutrient broth) is “no activity”. The “fold more activity against Streptococcus agalactiae than arylomycin C16” value with S. agalactiae is listed as “greater than 16 fold”. Moreover, the “MIC, S. agalactiae” value in the assay with S. agalactiae (Table 14) turned out to be 8 µg/mL (≈ 8.64 µM). Also, the “MIC, S. pyogenes” value in the assay with S. pyogenes (Table 14) stood at 4 µg/mL (≈ 4.32 µM). In addition, the “MIC, S. pneumoniae” value against S. pneumoniae (Table 14) turned out to be 16 µg/mL (≈ 17.3 µM).
Regarding `CCCCCCCCCCCCCCCC(=O)N(C)[C@H](CO)C(=O)N[C@H](C)C(=O)NCC(=O)N(C)[C@@H]1C(=O)N[C@@H](C)C(=O)N[C@H](C(=O)O)Cc2cc(N)c(O)c(c2)-c2cc1ccc2O` [Compound 36], the MIC in assay [1] was 8 µg/mL (≈ 8.93 µM); in assay [2] it was 64 µg/mL (≈ 71.4 µM); in assay [3], 16 µg/mL (≈ 17.9 µM); in [4], 32 µg/mL (≈ 35.7 µM); with wild type E. coli MG1655, above 64 µg/mL; in the assay with B. brevis it was above 64 µg/mL. Further, the “fold loss of activity against S. epidermidis relative to arylomycin C16” value in assay [1] (sensitive (wild type) strain) is 32 fold. For the same compound, the “fold loss of activity against sensitized S. aureus relative to arylomycin C16” value in assay [2] is given as 32 fold. In addition, in assay [3], the “fold loss of activity against sensitized E. coli relative to arylomycin C16” value amounted to 8 fold. Besides, the “fold loss of activity against sensitized P. aeruginosa relative to arylomycin C16” value in assay [4] came out at 8 fold.
For the compound `CCCCCCCCCCCCCCCC(=O)N(C)C(CO)C(=O)NC(C)C(=O)NCC(=O)N(C)C1C(=O)NC(CCCCC)C(=O)NC(C(=O)O)Cc2ccc(O)c(c2)-c2cc1ccc2O` (stereo not shown) [Compound 30], the “fold loss of activity against sensitized S. aureus relative to arylomycin C16” value in assay [2] is 32 fold.
For the compound `CCCCCCCCCCCCCCCC(=O)N(C)[C@H](CO)C(=O)N(C)[C@H](C)C(=O)NCC(=O)N(C)[C@@H]1C(=O)N[C@@H](C)C(=O)N[C@H](C(=O)O)Cc2ccc(O)c(c2)-c2cc1ccc2O` [Compound 18], the “MIC, Sensitive Se” value in [1] was above 64 µg/mL. Besides, the “MIC, Sensitive Sa” value in assay [2] was above 64 µg/mL. Moreover, in assay [3], the “MIC, Sensitive Ec” value was above 64 µg/mL. Also, the “MIC, Sensitive Pa” value in assay [4] is above 64 µg/mL. The “MIC, Resistant Se” value in assay [5] is above 64 µg/mL. For the same compound, the “MIC, Resistant Sa” value in the assay on wild type S. aureus 8325 is above 64 µg/mL. Also, in the assay on wild type E. coli MG1655, the “MIC, Resistant Ec” value is above 64 µg/mL. Moreover, the “MIC, Resistant Pa” value in assay [6] is above 64 µg/mL.
For the compound `CCCCCCCCCCCCCCCC(=O)N(C)C(CO)C(=O)NC(C)C(=O)NCC(=O)N(C)C1C(=O)NC(CC(C)C)C(=O)NC(C(=O)O)Cc2ccc(O)c(c2)-c2cc1ccc2O` (stereo not shown) [Compound 35], the “fold loss of activity against sensitized P. aeruginosa relative to arylomycin C16” value in assay [4] is reported as above 16 fold.
For the compound `CCCCCCCCCCCCCCCC(=O)N1CC(O)CC1C(=O)NC(C)C(=O)NCC(=O)N(C)C1C(=O)NC(C)C(=O)NC(C(=O)O)Cc2ccc(O)c(c2)-c2cc1ccc2O` (stereo not shown) [Compound 19], the “MIC, Sensitive Se” value in assay [1] worked out at 4 µg/mL (≈ 4.48 µM). Moreover, the “MIC, Sensitive Sa” value in assay [2] was 4 µg/mL (≈ 4.48 µM). The “MIC, Sensitive Ec” value in [3] was above 64 µg/mL. Besides, in [4], the “MIC, Sensitive Pa” value is above 64 µg/mL. Moreover, the “MIC, Resistant Se” value in [5] is 8 µg/mL (≈ 8.96 µM). In addition, in the assay with wild type S. aureus 8325, the “MIC, Resistant Sa” value is above 64 µg/mL. Also, the “MIC, Resistant Ec” value against wild type E. coli MG1655 is above 64 µg/mL. Besides, the “MIC, Resistant Pa” value in assay [6] is above 64 µg/mL.
In the case of `CCCCCCCCCCCCCCCC(=O)N(C)C(CO)CCC(=O)NC(C)C(=O)NCC(=O)N(C)C1C(=O)NC(C)C(=O)NC(C(=O)O)Cc2ccc(O)c(c2)-c2cc1ccc2O` (stereo not shown) [Compound 24], in assay [1], the “MIC, Sensitive Se” value was found to be 8 µg/mL (≈ 8.8 µM). Also, the “MIC, Sensitive Sa” value in assay [2] is 4 µg/mL (≈ 4.4 µM). Moreover, in [3], the “MIC, Sensitive Ec” value is above 64 µg/mL. The “MIC, Sensitive Pa” value in [4] is above 64 µg/mL. The “MIC, Resistant Se” value in assay [5] turned out to be 16 µg/mL (≈ 17.6 µM). In addition, the “MIC, Resistant Sa” value against wild type S. aureus 8325 came out at 16 µg/mL (≈ 17.6 µM). Besides, the “MIC, Resistant Ec” value against wild type E. coli MG1655 is above 64 µg/mL. Further, the “MIC, Resistant Pa” value in assay [6] was above 64 µg/mL.
In the case of Arylomycin A2 [reference compound], the “MIC, S. aureus 8325” value with wild type S. aureus 8325 (Table 1) is above 128 µM. Besides, in the assay with wild type E. coli MG1655 (Table 1), the “MIC, E. coli MG1655” value is above 128 µM. Besides, in assay [7], the “MIC, S. epidermidis ATCC 35984” value is 1 µM.
For `CCCCCCCCCCCCCCCC(=O)N(C)C(CO)C(=O)NC(C)C(=O)NCC(=O)N(C)C1C(=O)NC(C(C)C)C(=O)NC(C(=O)O)Cc2ccc(O)c(c2)-c2cc1ccc2O` (stereo not shown) [Compound 34], the “fold loss of activity against sensitized P. aeruginosa relative to arylomycin C16” value in assay [4] was determined as 4 fold.
Turning to `CCCCCCCCCCCCCCCC(=O)N(C)C(CO)C(=O)NC(C)C(=O)NCC(=O)N(C)C1C(=O)NC(CC(F)(F)F)C(=O)NC(C(=O)O)Cc2ccc(O)c(c2)-c2cc1ccc2O` (stereo not shown) [Compound 33], the “fold loss of activity against S. epidermidis relative to arylomycin C16” value in assay [1] turned out to be 32 fold. Further, the “fold loss of activity against sensitized S. aureus relative to arylomycin C16” value in assay [2] is “at least 16 fold”. Further, the “fold loss of activity against sensitized E. coli relative to arylomycin C16” value in [3] is on record as 8 fold. Besides, the “fold loss of activity against sensitized P. aeruginosa relative to arylomycin C16” value in assay [4] is recorded as “at least 16 fold”.
For `CCCCCCCCCCCCCCCC(=O)N[C@H](CO)C(=O)N[C@H](C)C(=O)NCC(=O)N(C)[C@@H]1C(=O)N[C@@H](C)C(=O)N[C@H](C(=O)O)Cc2ccc(O)c(c2)-c2cc1ccc2O` [Compound 17], in [1], the “MIC, Sensitive Se” value was found to be 1 µg/mL (≈ 1.15 µM). Besides, the “MIC, Sensitive Sa” value in assay [2] worked out at 16 µg/mL (≈ 18.5 µM). For the same compound, the “MIC, Sensitive Ec” value in assay [3] was determined as 4 µg/mL (≈ 4.61 µM). Further, the “MIC, Sensitive Pa” value in assay [4] is above 64 µg/mL. For the same compound, the “MIC, Resistant Se” value in assay [5] is 32 µg/mL (≈ 36.9 µM). In the assay with wild type S. aureus 8325, the “MIC, Resistant Sa” value is above 64 µg/mL. The “MIC, Resistant Ec” value in the assay on wild type E. coli MG1655 is above 64 µg/mL. The “MIC, Resistant Pa” value in [6] is above 64 µg/mL.
As to `CCCCCCCCCCCCCCCC(=O)N(C)[C@H](CO)C(=O)N[C@H](C)C(=O)NCC(=O)N(C)[C@@H]1C(=O)NCC(=O)N[C@H](C(=O)O)Cc2ccc(O)c(c2)-c2cc1ccc2O` [Compound 26], the “fold loss of activity against S. epidermidis relative to arylomycin C16” value in assay [1] was 32 fold. Besides, the “fold loss of activity against sensitized S. aureus relative to arylomycin C16” value in assay [2] is on record as above 16 fold. Also, the “fold loss of activity against sensitized E. coli relative to arylomycin C16” value in [3] is listed as 32 fold. The “fold loss of activity against sensitized P. aeruginosa relative to arylomycin C16” value in [4] is given as above 16 fold.
Consider `CCCCCCCCCCCCCCCC(=O)N(C)C(CO)C(=O)NC(C)C(=O)NCC(=O)N(C)C1C(=O)NC(CCCC)C(=O)NC(C(=O)O)Cc2ccc(O)c(c2)-c2cc1ccc2O` (stereo not shown) [Compound 29], for which, in [2], the “fold loss of activity against sensitized S. aureus relative to arylomycin C16” value is on record as 32 fold.
